IC50 data for 38 compounds are collected here from patent US7781591B2, “Substituted 3-cyanopyridines as protein kinase inhibitors” (Wyeth LLC, priority 2006, dated 2010).

As a reminder, the IC50 is the midpoint of a concentration-inhibition curve.

One assay deals with T1, human PKCθ full length enzyme (Homo sapiens, UniProt Q04759).
T1 construct: human PKCθ full length enzyme (Panvera Cat# P2996); purchased Panvera P2996
T1 sequence (Q04759 whole entry): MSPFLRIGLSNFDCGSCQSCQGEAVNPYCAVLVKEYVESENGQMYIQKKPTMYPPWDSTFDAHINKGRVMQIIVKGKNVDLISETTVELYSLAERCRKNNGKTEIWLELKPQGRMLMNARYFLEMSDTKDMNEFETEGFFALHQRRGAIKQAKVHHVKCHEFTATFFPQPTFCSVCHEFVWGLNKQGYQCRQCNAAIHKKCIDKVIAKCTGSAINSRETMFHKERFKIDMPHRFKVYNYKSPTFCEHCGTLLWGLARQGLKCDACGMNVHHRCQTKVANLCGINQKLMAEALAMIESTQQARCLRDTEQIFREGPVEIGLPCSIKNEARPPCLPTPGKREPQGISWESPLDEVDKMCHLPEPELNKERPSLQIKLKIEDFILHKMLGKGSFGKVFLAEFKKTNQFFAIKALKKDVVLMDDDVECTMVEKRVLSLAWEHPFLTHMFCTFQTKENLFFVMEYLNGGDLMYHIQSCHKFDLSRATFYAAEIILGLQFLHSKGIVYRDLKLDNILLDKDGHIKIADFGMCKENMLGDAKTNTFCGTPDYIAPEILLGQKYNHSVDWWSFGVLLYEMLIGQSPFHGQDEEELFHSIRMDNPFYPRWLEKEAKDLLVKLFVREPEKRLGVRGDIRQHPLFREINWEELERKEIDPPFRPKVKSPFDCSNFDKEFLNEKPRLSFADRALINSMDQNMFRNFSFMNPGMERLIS
The assay is described as follows: PKCθ IMAP assay (fluorescence polarization).
Details: not given
The assay is classed as biochemical.
`Cc1c(Nc2c(C#N)cncc2-c2ccc(OCCNCCN(C)C)cc2)ccc2[nH]ccc12` [Compound 417, 5-[4-(2-{[2-(dimethylamino)ethyl]amino}ethoxy)phenyl]-4-[(4-methyl-1H-indol-5-yl)amino]nicotinonitrile] showed an IC50 of 6 nM.

Still in this assay, the particulars now being: human PKCθ full length enzyme, IMAP; average value; read-out: IC50 PKCθ IMAP.
In the case of `N#Cc1cncc(-c2ccccc2)c1Nc1ccc2[nH]ccc2c1` [Compound 257, 4-(1H-indol-5-ylamino)-5-phenylnicotinonitrile], the IC50 turned out to be 100 nM. Same read-out and setting: under `Cc1c(Nc2c(C#N)cncc2-c2cc3cc(CNCC(O)CO)ccc3o2)ccc2[nH]ccc12` (centres unmarked) [Compound 385, 5-(5-{[(2,3-dihydroxypropyl)amino]methyl}-1-benzofuran-2-yl)-4-[(4-methyl-1H-indol-5-yl)amino]nicotinonitrile] stands 2 nM. The same measure, in the same setting: to `COc1ccc(-c2cncc(C#N)c2NCCN2CCN(C)CC2)cc1OC` [Compound 439, 5-(3,4-dimethoxyphenyl)-4-{[2-(4-methylpiperazin-1-yl)ethyl]amino}nicotinonitrile] belongs 5850 nM; to `CS(=O)(=O)Nc1cccc(-c2cncc(C#N)c2Nc2cccc3[nH]ccc23)c1` [Compound 256, N-{3-[5-cyano-4-(1H-indol-4-ylamino)pyridin-3-yl]phenyl}methanesulfonamide], 20 nM. For the compound `N#Cc1cncc(-c2ccc(OCCN3CCOCC3)cc2)c1Nc1cccc2[nH]ccc12` [Compound 334, 4-(1H-indol-4-ylamino)-5-[4-(2-morpholin-4-ylethoxy)phenyl]nicotinonitrile], the IC50 turned out to be 30 nM.

Take `Cc1c(Nc2c(C#N)cncc2-c2cc3cc(CO)ccc3o2)ccc2[nH]ccc12` [Compound 481, 5-[5-(hydroxymethyl)-1-benzofuran-2-yl]-4-[(4-methyl-1H-indol-5-yl)amino]nicotinonitrile]: the IC50 turned out to be 0.21 nM.

Regarding `N#Cc1cncc(-c2cccc(-c3cccs3)c2)c1Nc1cccc2[nH]ccc12` [Compound 147, 4-(1H-indol-4-ylamino)-5-[3-(2-thienyl)phenyl]nicotinonitrile], the half-inhibitory concentration (IC50) was 20 nM. Turning to `N#Cc1cncc(-c2cccc(-c3ccc(C(=O)NCCO)cc3)c2)c1Nc1ccc2[nH]ccc2c1` [Compound 199, 3′-[5-cyano-4-(1H-indol-5-ylamino)pyridin-3-yl]-N-(2-hydroxyethyl)biphenyl-4-carboxamide], the IC50 is 1300 nM. The same measure, in the same setting: under `Cc1c(Nc2c(C#N)cncc2-c2cccc(Cl)c2Cl)ccc2[nH]ccc12` [Compound 380, 5-(2,3-dichlorophenyl)-4-[(4-methyl-1H-indol-5-yl)amino]nicotinonitrile] stands 50 nM; under `Cc1c(Nc2c(C#N)cncc2-c2cnc(CN3CCN(C)CC3)n2C)ccc2[nH]ccc12` [Compound 539, 4-[(4-methyl-1H-indol-5-yl)amino]-5-{1-methyl-2-[(4-methylpiperazin-1-yl)methyl]-1H-imidazol-5-yl}nicotinonitrile], 36 nM. `Cc1c(Nc2c(C#N)cncc2-c2cc3cc(C4OCCCO4)ccc3o2)ccc2[nH]ccc12` [Compound 370, 5-[5-(1,3-dioxan-2-yl)-1-benzofuran-2-yl]-4-[(4-methyl-1H-indol-5-yl)amino]nicotinonitrile]: the IC50 was 4 nM. Consider `COc1ccc(-c2cncc(C#N)c2Nc2ccc3[nH]c(C)cc3c2)cc1OC` [Compound 110, 5-(3,4-dimethoxyphenyl)-4-[(2-methyl-1H-indol-5-yl)amino]nicotinonitrile], for which the IC50 worked out at 65 nM.

“4-(1H-indol-4-ylamino)-5-(4-methoxy-3-{2-[(3-pyrrolidin-1-ylpropyl)amino]ethoxy}phenyl)nicotinonitrile [Compound 340]”: the IC50 is 8 nM. Same read-out and setting: to `Cc1c(Nc2c(C#N)cncc2-c2cccc(OCCCCN3CCN(C)CC3)c2)ccc2[nH]ccc12` [Compound 502, 4-[(4-methyl-1H-indol-5-yl)amino]-5-{3-[4-(4-methylpiperazin-1-yl)butoxy]phenyl}nicotinonitrile] belongs 21 nM; to `Cc1cc2[nH]ccc2cc1Nc1c(C#N)cncc1-c1ccc(OCCN2CCC(O)CC2)cc1` [Compound 505, 5-{4-[2-(4-hydroxypiperidin-1-yl)ethoxy]phenyl}-4-[(6-methyl-1H-indol-5-yl)amino]nicotinonitrile], 76 nM; to `N#Cc1cncc(-c2cccc(O)c2)c1Nc1cccc2[nH]ccc12` [Compound 358, 5-(3-hydroxyphenyl)-4-(1H-indol-4-ylamino)nicotinonitrile], 10 nM. Still for that read-out and setting: to `N#Cc1cncc(-c2cc3cc(CNCc4ccncc4)ccc3s2)c1Nc1cccc2[nH]ccc12` [Compound 290, 4-(1H-indol-4-ylamino)-5-(5-{[(pyridin-4-ylmethyl)amino]methyl}-1-benzothien-2-yl)nicotinonitrile] belongs 4 nM. On to `COc1ccc(-c2cncc(C#N)c2Nc2ccc3[nH]ccc3c2)cc1OCCN1CCOCC1` [Compound 230, 4-(1H-indol-5-ylamino)-5-[4-methoxy-3-(2-morpholin-4-ylethoxy)phenyl]nicotinonitrile], for which the concentration for half-maximal inhibition (IC50) was determined as 330 nM. On the same count and under the same terms, under `COc1ccc(-c2cncc(C#N)c2NC[C@H]2CC[C@H](N)CC2)cc1OC` [Compound 442, 4-{[(trans-4-aminocyclohexyl)methyl]amino}-5-(3,4-dimethoxyphenyl)nicotinonitrile] stands 1770 nM; under `COc1ccc(-c2cncc(C#N)c2Nc2ccc3[nH]ccc3c2C)cc1OCCNCCCc1ccccc1` [Compound 342, 5-(4-methoxy-3-{2-[(3-phenylpropyl)amino]ethoxy}phenyl)-4-[(4-methyl-1H-indol-5-yl)amino]nicotinonitrile], 1 nM. Take `COc1ccc(-c2cncc(C#N)c2Nc2ccc3[nH]ccc3c2C)cc1OC` [Compound 218, 5-(3,4-dimethoxyphenyl)-4-[(4-methyl-1H-indol-5-yl)amino]nicotinonitrile]: the half-inhibitory concentration (IC50) is 6 nM. `Cc1c(Nc2c(C#N)cncc2-c2cccc3ccccc23)ccc2[nH]ccc12` [Compound 581, 4-[(4-methyl-1H-indol-5-yl)amino]-5-(1-naphthyl)nicotinonitrile]: the IC50 is 23 nM. For the compound `CN(C)C(=O)c1cccc(-c2cncc(C#N)c2Nc2cccc3[nH]ccc23)c1` [Compound 312, 3-[5-cyano-4-(1H-indol-4-ylamino)pyridin-3-yl]-N,N-dimethylbenzamide], the IC50 turned out to be 600 nM. On the same count and under the same terms, to `COc1cccc(-c2cncc(C#N)c2Nc2ccc3cn[nH]c3c2)c1` [Compound 296, 4-(1H-indazol-6-ylamino)-5-(3-methoxyphenyl)nicotinonitrile] belongs 16200 nM. Take `Cc1c(Nc2c(C#N)cncc2-c2ccc(O)cc2)ccc2[nH]ccc12` [Compound 374, 5-(4-hydroxyphenyl)-4-[(4-methyl-1H-indol-5-yl)amino]nicotinonitrile]: the IC50 stood at 20 nM. Consider `COc1ccc(-c2c[n+]([O-])cc(C#N)c2Nc2ccc3[nH]ccc3c2)cc1OC` [Compound 523, 5-(3,4-dimethoxyphenyl)-4-(1H-indol-5-ylamino)nicotinonitrile 1-oxide], for which the IC50 was found to be 737 nM. The same measure, in the same setting: to `COc1ccc(-c2cncc(C#N)c2Nc2cc(Cl)c3[nH]ccc3c2C)cc1OC` [Compound 498, 4-[(7-chloro-4-methyl-1H-indol-5-yl)amino]-5-(3,4-dimethoxyphenyl)nicotinonitrile] belongs 16 nM; to `Cc1c(Nc2c(C#N)cncc2-c2cc3cc(CNCc4ccccc4)ccc3s2)ccc2[nH]ccc12` [Compound 367, 5-{5-[(benzylamino)methyl]-1-benzothien-2-yl}-4-[(4-methyl-1H-indol-5-yl)amino]nicotinonitrile], 3 nM. The same measure, in the same setting: under `Cc1c(Nc2c(C#N)cncc2-c2ccc(N3CCOCC3)nc2)ccc2[nH]ccc12` [Compound 507, 4-[(4-methyl-1H-indol-5-yl)amino]-6′-morpholin-4-yl-3,3′-bipyridine-5-carbonitrile] stands 30 nM; under `COc1ccc(-c2cncc(C#N)c2Nc2cccc3[nH]ccc23)cc1OCCN(C)C` [Compound 301, 5-{3-[2-(dimethylamino)ethoxy]-4-methoxyphenyl}-4-(1H-indol-4-ylamino)nicotinonitrile], 50 nM; under `Cc1c(Nc2c(C#N)cncc2-c2cc3cc(CN4CCN(C(=O)OC(C)(C)C)CC4)ccc3o2)cc(Cl)c2[nH]ccc12` [Compound 548, tert-butyl 4-[(2-{4-[(7-chloro-4-methyl-1H-indol-5-yl)amino]-5-cyanopyridin-3-yl}-1-benzofuran-5-yl)methyl]piperazine-1-carboxylate], 406 nM. `Cc1c(Nc2c(C#N)cncc2-c2cc3cc(CN4CCN(c5ccccn5)CC4)ccc3o2)ccc2[nH]ccc12` [Compound 397, 4-[(4-methyl-1H-indol-5-yl)amino]-5-{5-[(4-pyridin-2-ylpiperazin-1-yl)methyl]-1-benzofuran-2-yl}nicotinonitrile]: the half-maximal inhibitory concentration (IC50) was found to be 13 nM. In the case of `COc1ccc(-c2cncc(C#N)c2Nc2ccc3[nH]c(C)cc3c2C)cc1OC` [Compound 549, 5-(3,4-dimethoxyphenyl)-4-[(2,4-dimethyl-1H-indol-5-yl)amino]nicotinonitrile], the half-inhibitory concentration (IC50) is 10 nM. Same read-out and setting: to `COc1ccc(-c2cncc(C#N)c2Nc2cccc3[nH]ccc23)cc1OCCNCCc1cccnc1` [Compound 354, 4-(1H-indol-4-ylamino)-5-(4-methoxy-3-{2-[(2-pyridin-3-ylethyl)amino]ethoxy}phenyl)nicotinonitrile] belongs 4 nM. `COc1ccc(-c2cncc(C#N)c2Nc2cccc3[nH]ccc23)cc1OCCNCCCN1CCCC1=O` [Compound 338, 4-(1H-indol-4-ylamino)-5-[4-methoxy-3-(2-{[3-(2-oxopyrrolidin-1-yl)propyl]amino}ethoxy)phenyl]nicotinonitrile]: the IC50 is 8 nM. The same measure, in the same setting: under `N#Cc1cncc(-c2ccc(Br)cc2)c1Nc1ccc2[nH]ccc2c1` [Compound 116, 5-(4-bromophenyl)-4-(1H-indol-5-ylamino)nicotinonitrile] stands 70 nM; under `Cc1c(Nc2c(C#N)cncc2-c2ccc(CN3CCC(N4CCOCC4)CC3)o2)ccc2[nH]ccc12` [Compound 405, 4-[(4-methyl-1H-indol-5-yl)amino]-5-{5-[(4-morpholin-4-ylpiperidin-1-yl)methyl]-2-furyl}nicotinonitrile], 9 nM.
